Source: patent publication US11713335B2, “Aminocoumarin compounds and methods of their use” (President and Fellows of Harvard College, priority 2018, dated 2023)
≈ marks a conversion by molar mass, not a printed value. Like-named read-outs stand apart in the source and are kept apart here.

How the values were obtained:
Type in all cases: cell-based
S. aureus RN4220 = experiment: Minimal inhibitory concentration, S. aureus RN4220; settings: 16 hour minimal inhibitory concentration at 37° C., read-out: MIC (μM) S. aureus RN4220
Procedure: (§1) General Procedure for Determination of Minimal Inhibitory Concentrations
(§2) Overnight cultures (5 mL) of bacterial strains were grown in LB media or TSA media (for S. aureus) at 37° C. and with shaking at 220 rpm until saturation. The overnight culture was diluted serially 1:100 (50 μL in 5 mL sterile media) and then 1:100 (250 μL in 25 mL sterile media). The 25 mL of diluted culture was then dispensed to a sterile 96 well plate (Corning #3370). 198 μL of culture were dispensed into row A and 100 μL of this culture were dispensed into rows B-H. Aminocoumarin compound (DMSO stock) were added to the first row and then the row was mixed by pipetting. 100 μL of culture from row A were transferred to row B and the serial dilution continued until the final 100 μL from row H were discarded. The plate was incubated without shaking in a 37° C. for 16 hours and then read by visible light spectrophotometer (Molecular Devices) at 600 nm. The minimal inhibitory concentration (MIC) was determined as the lowest concentration of compound concentration that inhibited the growth of bacteria.
(§3) The compounds of the invention were assessed for activities against the pathogens S. aureus RN4220 and MW2, E. cloacae 13047, A. baumannii 19606, K. pneumoniae 700721, E. coli MC4100, 25922. All activities are reported in micromolar (uM) and are 16 hour minimal inhibitory concentrations at 37° C. The assay is detailed in Example 11 and is titled “General Procedure for Determination of Minimal Inhibitory Concentrations.”

S. aureus MW2 = experiment: Minimal inhibitory concentration, S. aureus MW2; settings: 16 hour minimal inhibitory concentration at 37° C., read-out: MIC (μM) S. aureus MW2 (MRSA)
Procedure: as §1, §2, §3

E. cloacae 13047 = experiment: Minimal inhibitory concentration, E. cloacae 13047; settings: 16 hour minimal inhibitory concentration at 37° C., read-out: MIC (μM) E. cloacae 13047
Procedure: as §1, §2, §3

A. baumannii 19606 = experiment: Minimal inhibitory concentration, A. baumannii 19606; settings: 16 hour minimal inhibitory concentration at 37° C., read-out: MIC (μM) A. baumannii 19606
Procedure: as §1, §2, §3

K. pneumoniae 700721 = experiment: Minimal inhibitory concentration, K. pneumoniae 700721; settings: 16 hour minimal inhibitory concentration at 37° C., read-out: MIC (μM) K. pneumoniae 700721
Procedure: as §1, §2, §3

E. coli MC4100 = experiment: Minimal inhibitory concentration, E. coli MC4100; settings: 16 hour minimal inhibitory concentration at 37° C., read-out: MIC (μM) E. coli MC4100 ara+
Procedure: as §1, §2, §3

E. coli 25922 = experiment: Minimal inhibitory concentration, E. coli 25922; settings: 16 hour minimal inhibitory concentration at 37° C., read-out: MIC (μM) E. coli 25922
Procedure: as §1, §2, §3

[1] = Staphylococcus aureus, RN4220, 16 h
[2] = Staphylococcus aureus, MRSA, 16 h
[3] = Acinetobacter baumannii, 19606, 16 h

COc1ccc(C(=O)Nc2c(O)c3ccc(O[C@@H]4OC(C)(C)[C@H](OC)[C@@H](OC(N)=O)[C@H]4O)c(C)c3oc2=O)cc1Oc1ccccc1 [Compound 256]
MIC (S. aureus RN4220; [1]): 19 µM (≈ 12.4 µg/mL)
MIC (S. aureus MW2; [2]): 19 µM (≈ 12.4 µg/mL)
MIC (E. cloacae 13047; Enterobacter cloacae, 13047): > 100 µM
MIC (A. baumannii 19606; [3]): > 50 µM
MIC (K. pneumoniae 700721; Klebsiella pneumoniae, 700721): 19 µM (≈ 12.4 µg/mL)
MIC (E. coli MC4100; Escherichia coli, MC4100, 16 h): 10 µM (≈ 6.51 µg/mL)
MIC (E. coli 25922; Escherichia coli, 25922, 16 h): 10 µM (≈ 6.51 µg/mL)

Cc1c(O)ccc2c(O)c(NC(=O)c3ccc(I)c(-c4ccccc4)c3)c(=O)oc12 [Compound 228]
MIC (S. aureus RN4220; [1]): 97 µM (≈ 49.8 µg/mL)
MIC (S. aureus MW2; [2]): 97 µM (≈ 49.8 µg/mL)
MIC (E. cloacae 13047; Enterobacter cloacae, 13047): > 100 µM
MIC (A. baumannii 19606; [3]): > 50 µM
MIC (K. pneumoniae 700721; Klebsiella pneumoniae, 700721): > 100 µM
MIC (E. coli MC4100; Escherichia coli, MC4100, 16 h): > 200 µM
MIC (E. coli 25922; Escherichia coli, 25922, 16 h): > 200 µM

CO[C@@H]1[C@@H](O)[C@@H](OC(=O)NC(C)C)[C@H](Oc2ccc3c(O)c(NC(=O)c4ccc(O)c(CC=C(C)C)c4)c(=O)oc3c2C)OC1(C)C [Compound 105]
MIC (S. aureus RN4220): >100 µM
MIC (S. aureus MW2): >100 µM
MIC (E. cloacae 13047): >100 µM
MIC (A. baumannii 19606): >50 µM
MIC (K. pneumoniae 700721): >100 µM
MIC (E. coli MC4100): >200 µM
MIC (E. coli 25922): >200 µM

CO[C@@H]1[C@@H](OC(N)=O)[C@@H](O)[C@H](Oc2ccc3c(O)c(NC(=O)c4cccc(-c5cc[nH]n5)c4)c(=O)oc3c2C)OC1(C)C [Compound 201]
MIC (S. aureus RN4220; [1]): 42 µM (≈ 25 µg/mL)
MIC (S. aureus MW2; [2]): 42 µM (≈ 25 µg/mL)
MIC (E. cloacae 13047; Enterobacter cloacae, 13047): > 100 µM
MIC (A. baumannii 19606; [3]): > 50 µM
MIC (K. pneumoniae 700721; Klebsiella pneumoniae, 700721): > 100 µM
MIC (E. coli MC4100; Escherichia coli, MC4100, 16 h): > 200 µM
MIC (E. coli 25922; Escherichia coli, 25922, 16 h): > 200 µM

CO[C@@H]1[C@@H](OC(N)=O)[C@@H](O)[C@H](Oc2ccc3c(O)c(NC(=O)c4ccc5c(c4)oc4ccccc45)c(=O)oc3c2C)OC1(C)C [Compound 250]
MIC (S. aureus RN4220; [1]): 10 µM (≈ 6.19 µg/mL)
MIC (S. aureus MW2; [2]): 10 µM (≈ 6.19 µg/mL)
MIC (E. cloacae 13047; Enterobacter cloacae, 13047): > 100 µM
MIC (A. baumannii 19606; [3]): > 50 µM
MIC (K. pneumoniae 700721; Klebsiella pneumoniae, 700721): > 100 µM
MIC (E. coli MC4100; Escherichia coli, MC4100, 16 h): > 100 µM
MIC (E. coli 25922; Escherichia coli, 25922, 16 h): > 200 µM

CO[C@@H]1[C@@H](OC(=O)NC2CCCC2)[C@@H](O)[C@H](Oc2ccc3c(O)c(NC(=O)c4ccc(O)c(CC=C(C)C)c4)c(=O)oc3c2C)OC1(C)C [Compound 108]
MIC (S. aureus RN4220): >100 µM
MIC (S. aureus MW2): >100 µM
MIC (E. cloacae 13047): >100 µM
MIC (A. baumannii 19606): >50 µM
MIC (K. pneumoniae 700721): >100 µM
MIC (E. coli MC4100): >200 µM
MIC (E. coli 25922): >200 µM

CO[C@@H]1[C@@H](OC(=O)Nc2ccccc2)[C@@H](O)[C@H](Oc2ccc3c(O)c(NC(=O)c4cccc(-c5ccc6ccccc6c5)c4)c(=O)oc3c2C)OC1(C)C [Compound 205]
MIC (S. aureus RN4220; [1]): 9 µM (≈ 6.58 µg/mL)
MIC (S. aureus MW2; [2]): 9 µM (≈ 6.58 µg/mL)
MIC (E. cloacae 13047; Enterobacter cloacae, 13047): > 100 µM
MIC (A. baumannii 19606; [3]): > 50 µM
MIC (K. pneumoniae 700721; Klebsiella pneumoniae, 700721): > 100 µM
MIC (E. coli MC4100; Escherichia coli, MC4100, 16 h): > 200 µM
MIC (E. coli 25922; Escherichia coli, 25922, 16 h): > 200 µM

CO[C@@H]1[C@@H](OC(N)=O)[C@@H](O)[C@H](Oc2ccc3c(O)c(NC(=O)c4cccc(-c5cccc(Br)c5)c4)c(=O)oc3c2C)OC1(C)C [Compound 234]
MIC (S. aureus RN4220; [1]): 0.73 µM (≈ 0.499 µg/mL)
MIC (S. aureus MW2; [2]): 0.46 µM (≈ 0.314 µg/mL)
MIC (E. cloacae 13047; Enterobacter cloacae, 13047): > 100 µM
MIC (A. baumannii 19606; [3]): 18 µM (≈ 12.3 µg/mL)
MIC (K. pneumoniae 700721; Klebsiella pneumoniae, 700721): > 100 µM
MIC (E. coli MC4100; Escherichia coli, MC4100, 16 h): 18 µM (≈ 12.3 µg/mL)
MIC (E. coli 25922; Escherichia coli, 25922, 16 h): 18 µM (≈ 12.3 µg/mL)

CO[C@@H]1[C@@H](OC(N)=O)[C@@H](O)[C@H](Oc2ccc3c(O)c(NC(=O)c4cc(Oc5ccccc5)c(O)cc4O)c(=O)oc3c2C)OC1(C)C [Compound 244]
MIC (S. aureus RN4220; [1]): 19 µM (≈ 12.4 µg/mL)
MIC (S. aureus MW2; [2]): 19 µM (≈ 12.4 µg/mL)
MIC (E. cloacae 13047; Enterobacter cloacae, 13047): > 100 µM
MIC (A. baumannii 19606; [3]): > 50 µM
MIC (K. pneumoniae 700721; Klebsiella pneumoniae, 700721): 38 µM (≈ 24.8 µg/mL)
MIC (E. coli MC4100; Escherichia coli, MC4100, 16 h): 4.8 µM (≈ 3.13 µg/mL)
MIC (E. coli 25922; Escherichia coli, 25922, 16 h): 38 µM (≈ 24.8 µg/mL)

CO[C@@H]1[C@@H](OC(N)=O)[C@@H](O)[C@H](Oc2ccc3c(O)c(NS(=O)(=O)c4cccc(-c5ccccc5)c4)c(=O)oc3c2C)OC1(C)C [Compound 202]
MIC (S. aureus RN4220; [1]): > 100 µM
MIC (S. aureus MW2; [2]): > 100 µM
MIC (E. cloacae 13047; Enterobacter cloacae, 13047): > 100 µM
MIC (A. baumannii 19606; [3]): > 50 µM
MIC (K. pneumoniae 700721; Klebsiella pneumoniae, 700721): > 100 µM
MIC (E. coli MC4100; Escherichia coli, MC4100, 16 h): > 200 µM
MIC (E. coli 25922; Escherichia coli, 25922, 16 h): > 200 µM

CO[C@@H]1[C@@H](O)[C@@H](OC(=O)c2cccn2C)[C@H](Oc2ccc3c(O)c(NC(=O)c4ccc(O)c(CC=C(C)C)c4)c(=O)oc3c2C)OC1(C)C [Compound 114]
MIC (S. aureus RN4220): 74 µM (≈ 50.1 µg/mL)
MIC (S. aureus MW2): 74 µM (≈ 50.1 µg/mL)
MIC (E. cloacae 13047): >100 µM
MIC (A. baumannii 19606): >50 µM
MIC (K. pneumoniae 700721): >100 µM
MIC (E. coli MC4100): >200 µM
MIC (E. coli 25922): >200 µM
